{"source": "patent US12714107B2", "about": "“Dioxazolines and their use as herbicides” (BASF SE, priority 2020, dated 2026)", "key": {"ECHCG [1]": {"system": "ECHCG", "experiment": "greenhouse herbicidal activity, pre-emergence method", "assay_type": "in vivo, Echinocloa crus-galli", "details": "scale 0 to 100", "from_the_text": "(§1) The culture containers used were plastic flowerpots containing loamy sand with approximately 3.0% of humus as the substrate. The seeds of the test plants were sown separately for each species.\n(§2) For the pre-emergence treatment, the active ingredients, which had been suspended or emulsified in water, were applied directly after sowing by means of finely distributing nozzles. The containers were irrigated gently to promote germination and growth and subsequently covered with transparent plastic hoods until the test plants had rooted. This cover caused uniform germination of the test plants, unless this had been impaired by the active ingredients. For the post-emergence treatment, the test plants were first grown to a height of 3 to 15 cm, depending on the plant habit, and only then treated with the active ingredients which had been suspended or emulsified in water. For this purpose, the test plants were either sown directly and grown in the same containers, or they were first grown separately as seedlings and transplanted into the test containers a few days prior to treatment.\n(§3) Depending on the species, the test plants were kept at 10-25° C. or 20-35° C., respectively. The test period extended over 2 to 4 weeks. During this time, the test plants were tended, and their response to the individual treatments was evaluated.\n(§4) Evaluation was carried out using a scale from 0 to 100. […]"}, "SETFA": {"system": "SETFA", "experiment": "greenhouse herbicidal activity, pre-emergence method", "assay_type": "in vivo, Setaria faberi", "details": "application rate 1,000 kg/ha, scale 0 to 100", "from_the_text": "as §1, §2, §3, §4"}, "AMARE [2]": {"system": "AMARE", "experiment": "greenhouse herbicidal activity, post-emergence method", "assay_type": "in vivo, Amaranthus retroflexus", "details": "application rate 1,000 kg/ha, scale 0 to 100", "from_the_text": "as §1, §2, §3, §4"}, "AMARE [3]": {"system": "AMARE", "experiment": "greenhouse herbicidal activity, pre-emergence method", "assay_type": "in vivo, Amaranthus retroflexus", "details": "scale 0 to 100", "from_the_text": "as §1, §2, §3\nEvaluation was carried out using a scale from 0 to 100. 100 means no emergence of the test plants, or complete destruction of at least the aerial moieties, and 0 means no damage, or normal course of growth. A good herbicidal activity is given at values of 80 to 90 and a very good herbicidal activity is given at values of 90 to 100.\nThe test plants used in the greenhouse experiments were of the following species: […]"}, "AVEFA": {"system": "AVEFA", "experiment": "greenhouse herbicidal activity, post-emergence method", "assay_type": "in vivo, Avena fatua", "details": "scale 0 to 100", "from_the_text": "as §1, §2, §3, §4"}, "APESV": {"system": "APESV", "experiment": "greenhouse herbicidal activity, pre-emergence method", "assay_type": "in vivo, Apera spica-venti", "details": "application rate 0,500 kg/ha, scale 0 to 100", "from_the_text": "as §1, §2, §3, §4"}, "SETVI": {"system": "SETVI", "experiment": "greenhouse herbicidal activity, post-emergence method", "assay_type": "in vivo, Setaria viridis", "details": "application rate 0,500 kg/ha, scale 0 to 100", "from_the_text": "as §1, §2, §3, §4"}, "ECHCG [4]": {"system": "ECHCG", "experiment": "greenhouse herbicidal activity, post-emergence method", "assay_type": "in vivo, Echinocloa crus-galli", "details": "scale 0 to 100", "from_the_text": "as §1, §2, §3, §4"}, "ALOMY": {"system": "ALOMY", "experiment": "greenhouse herbicidal activity, post-emergence method", "assay_type": "in vivo, Alopercurus myosuroides", "details": "application rate 0,500 kg/ha, scale 0 to 100", "from_the_text": "as §1, §2, §3, §4"}}}
{"smiles": "CC(CC(=O)O)NC(=O)C1(C)ON=C(c2cc(Cl)cc(Cl)c2)O1", "note": "(centres unmarked) [compound 17]", "values": [{"measurement": "herbicidal activity against ECHCG", "setting": "ECHCG [1]; application rate 1,000 kg/ha", "value": "good (A good herbicidal activity is given at values of 80 to 90)"}, {"measurement": "herbicidal activity against SETFA", "setting": "SETFA", "value": "very good (a very good herbicidal activity is given at values of 90 to 100)"}]}
{"smiles": "C=CC1(C(=O)NC(C)CC(=O)OC)ON=C(c2cc(Cl)cc(Cl)c2)O1", "note": "(centres unmarked) [compound 110]", "values": [{"measurement": "herbicidal activity against AMARE", "setting": "AMARE [2]", "value": "good (A good herbicidal activity is given at values of 80 to 90)"}, {"measurement": "herbicidal activity against AMARE", "setting": "AMARE [3]; application rate 1,000 kg/ha", "value": "good (A good herbicidal activity is given at values of 80 to 90)"}]}
{"smiles": "COC(=O)CCCNC(=O)C1(C)ON=C(c2cc(Cl)cc(Cl)c2)O1", "note": "(centres unmarked) [compound 12]", "values": [{"measurement": "herbicidal activity against AVEFA", "setting": "AVEFA; application rate 0,500 kg/ha", "value": "good (A good herbicidal activity is given at values of 80 to 90)"}, {"measurement": "herbicidal activity against APESV", "setting": "APESV", "value": "good (A good herbicidal activity is given at values of 80 to 90)"}]}
{"smiles": "COC(=O)C1CC(NC(=O)C2(C)ON=C(c3cc(F)cc(F)c3)O2)C1", "note": "(centres unmarked) [compound 16]", "values": [{"measurement": "herbicidal activity against SETVI", "setting": "SETVI", "value": "very good (a very good herbicidal activity is given at values of 90 to 100)"}]}
{"smiles": "C=CC1(C(=O)NC2C=CC(C(=O)OC)C2)ON=C(c2cc(Cl)cc(Cl)c2)O1", "note": "(centres unmarked) [compound 111]", "values": [{"measurement": "herbicidal activity against ECHCG", "setting": "ECHCG [1]; application rate 0,250 kg/ha", "value": "very good (a very good herbicidal activity is given at values of 90 to 100)"}, {"measurement": "herbicidal activity against ECHCG", "setting": "ECHCG [4]; application rate 0,250 kg/ha", "value": "very good (a very good herbicidal activity is given at values of 90 to 100)"}]}
{"smiles": "COC(=O)C1C=CC(NC(=O)C2(C(F)(F)F)ON=C(c3cc(Cl)cc(Cl)c3)O2)C1", "note": "(centres unmarked) [compound 19]", "values": [{"measurement": "herbicidal activity against AVEFA", "setting": "AVEFA; application rate 0,250 kg/ha", "value": "very good (a very good herbicidal activity is given at values of 90 to 100)"}]}
{"smiles": "COC(=O)CC(C)NC(=O)C1(C)ON=C(c2cc(Cl)cc(Cl)c2)O1", "note": "(centres unmarked) [compound 11]", "values": [{"measurement": "herbicidal activity against ECHCG", "setting": "ECHCG [4]; application rate 0,500 kg/ha", "value": "very good (a very good herbicidal activity is given at values of 90 to 100)"}]}
{"smiles": "COC(=O)C[C@H](C)NC(=O)C1(C(F)(F)F)ON=C(c2cc(Cl)cc(Cl)c2)O1", "note": "(stereo partly drawn) [compound 13, methyl (3S)-3-[[3-(3,5-dichlorophenyl)-5-(trifluoromethyl)-1,4,2-dioxazole-5-carbonyl]amino]butanoate]", "values": [{"measurement": "herbicidal activity against ALOMY", "setting": "ALOMY", "value": "good (A good herbicidal activity is given at values of 80 to 90)"}, {"measurement": "herbicidal activity against AMARE", "setting": "AMARE [3]; application rate 0,500 kg/ha", "value": "very good (a very good herbicidal activity is given at values of 90 to 100)"}]}
{"smiles": "COC(=O)C1C=CC(NC(=O)C2(C)ON=C(c3cc(F)cc(F)c3)O2)C1", "note": "(centres unmarked) [compound 18]", "values": [{"measurement": "herbicidal activity against AMARE", "setting": "AMARE [3]; application rate 1,000 kg/ha", "value": "very good (a very good herbicidal activity is given at values of 90 to 100)"}]}
